Source: patent publication US7060822B1, “2-pyrazolin-5-ones” (Abbott GmbH & Co. KG, priority 1999, dated 2006)

Row | melting point | Compound
1 | 206 to 210 °C | CCc1c(C)[nH]c(C=C2C(=O)NN=C2C2CC2)c1C [Example 66, 3-Cyclopropyl-4[(3,5-dimethyl-4-ethylpyrrol-2-yl)methylene]-2-pyrazolin-5-one]
2 | 217 to 220 °C | O=C1NN=C(Cc2ccccc2)C1=Cc1cn(CCCCO)c2ccccc12 [Example 211, 3-Benzyl-4-{[1-(4-hydroxybutyl)indol-3-yl]methylene}-2-pyrazolin-5-one]
3 | 327 to 329 °C | Cc1c[nH]c(C=C2C(=O)NN=C2c2nc3ccccc3s2)c1 [Example 69, 3-(Benzothiazol-2-yl)-4-[(4-methylpyrrol-2-yl)methylene]-2-pyrazolin-5-one]
4 | 220 °C | CCN(CC)CCc1c(C)[nH]c(C=C2C(=O)NN=C2c2ccncn2)c1C [Example 208, 4-{[4-(2-Diethylaminoethyl)-3,5-dimethylpyrrol-2-yl]methylene}-3-(4-pyrimidinyl)-2-pyrazolin-5-one]
5 | 160 to 164 °C (dec.) | Cn1cc(C=C2C(=O)NN=C2NC2CC2)c2ccccc21 [Example 292, 3-Cyclopropylamino-4-[(1-methylindol-3-yl)methylene]-2-pyrazolin-5-one]
6 | 286 to 288 °C | Cc1cccc2c(C=C3C(=O)NN=C3C3CC3)c[nH]c12 [Example 274, 3-Cyclopropyl-4-[(7-methylindol-3-yl)methylene]-2-pyrazolin-5-one]
7 | 294 to 296 °C | CC1CC1C1=NNC(=O)C1=Cc1c[nH]c2ccccc12 (centres unmarked) [Example 265, 4-[(Indol-3-yl)methylene]-3-(2-methylcyclopropyl)-2-pyrazolin-5-one]
8 | 240 to 242 °C | CCOC(=O)c1c(C)[nH]c(C=C2C(=O)NN=C2C2CC2)c1C [Example 75, 3-Cyclopropyl-4-[(3,5-dimethyl-4-ethoxycarbonylpyrrol-2-yl)methylene]-2-pyrazolin-5-one]
9 | 249 to 252 °C | O=C1NN=C(Nc2ccccc2)C1=Cc1c[nH]c2ncccc12 [Example 339, 4-[(7-Azaindol-3-yl)methylene]-3-phenylamino-2-pyrazolin-5-one]
10 | 205 to 207 °C | CCOC(=O)c1ccc(C=C2C(=O)NN=C2OC(C)C)[nH]1 [Example 90, 4-[(5-Ethoxycarbonylpyrrol-2-yl)methylene]-3-isopropoxy-2-pyrazolin-5-one]
11 | 290 to 293 °C | CCOC1=NNC(=O)C1=Cc1cc(C(=O)O)c[nH]1 [Example 154, 4-[(4-Carboxypyrrol-2-yl)methylene]-3-ethoxy-2-pyrazolin-5-one]
12 | 215 to 216 °C | O=C1NN=C(C2CC2)C1=Cc1cn(CCCCO)c2ccccc12 [Example 261, 3-Cyclopropyl-4-{[1-(4-hydroxybutyl)indol-3-yl]methylene}-2-pyrazolin-5-one]
13 | 173 to 175 °C | O=C1NN=C([C@@H]2C[C@H]2c2ccccc2)C1=Cc1ccc[nH]1 (relative stereo) [Example 106, 3-(trans-2-phenylcyclopropyl)-4-[(pyrrol-2-yl)methylene]-2-pyrazolin-5-one]
14 | 134 to 136 °C | COC(=O)CCC1=NNC(=O)C1=Cc1ccc[nH]1 [Example 103, 3-(2-Methoxycarbonylethyl)-4-[(pyrrol-2-yl)methylene]-2-pyrazolin-5-one]
15 | 170 to 172 °C | CCOC1=NNC(=O)C1=Cc1ccc(Cl)[nH]1 [Example 113, 4-[(5-Chloropyrrol-2-yl)methylene]-3-ethoxy-2-pyrazolin-5-one]
16 | 177 to 203 °C | CCOC1=NNC(=O)C1=Cc1cc2c([nH]1)CCC=C2Cl [Example 329, 4-[(4-Chloro-6,7-dihydroindol-2-yl)methylene]-3-ethoxy-2-pyrazolin-5-one]
17 | 280 to 282 °C | Cc1ccc(CC2=NNC(=O)C2=Cc2c[nH]c3ccccc23)cc1 [Example 219, 4-[(Indol-3-yl)methylene]-3-(4-methylbenzyl)-2-pyrazolin-5-one]
18 | 119 to 121 °C | CCc1ccc(C=C2C(=O)NN=C2OC(C)C)[nH]1 [Example 51, 4-[(5-Ethylpyrrol-2-yl)methylene]-3-isopropoxy-2-pyrazolin-5-one]
19 | > 300 °C | COc1ccc(NC(=O)CC2=NNC(=O)C2=Cc2c[nH]c3ccccc23)cc1 [Example 255, 4-[(Indol-3-yl)methylene]-3-(4-methoxyphenylaminocarbonylmethyl)-2-pyrazolin-5-one]
20 | 272 to 273 °C | O=C1NN=C(Nc2ccc(F)cc2)C1=Cc1ccc[nH]1 [Example 33, 3-(4-Fluorophenylamino)-4-[(pyrrol-2-yl)methylene]-2-pyrazolin-5-one]
21 | 144 to 146 °C | CCN(CC)CCc1c(C)[nH]c(C=C2C(=O)NN=C2c2ncccn2)c1C [Example 206, 4-{[4-(2-Diethylaminoethyl)-3,5-dimethylpyrrol-2-yl]methylene}-3-(2-pyrimidinyl)-2-pyrazolin-5-one]
22 | 266 to 268 °C | COc1ccc(CCC2=NNC(=O)C2=Cc2c[nH]c3ccccc23)cc1 [Example 231, 4-[(Indol-3-yl)methylene]-3-(4-methoxyphenylethyl)-2-pyrazolin-5-one]

Row | melting point | Compound
23 | 165 to 167 °C | O=C1NN=C(COc2cccc(Cl)c2)C1=Cc1ccc[nH]1 [Example 19, 3-(3-Chlorophenyloxymethyl)-4-[(pyrrol-2-yl)methylene]-2-pyrazolin-5-one]
24 | 225 to 228 °C | Cc1[nH]c(C=C2C(=O)NN=C2c2cnccn2)c(C)c1C(=O)O [Example 118, 4-[(4-Carboxy-3,5-dimethylpyrrol-2-yl)methylene]-3-pyrazinyl-2-pyrazolin-5-one]
25 | 252 to 253 °C | Cn1cc(C=C2C(=O)NN=C2NC(=O)C(F)(F)F)c2ccccc21 [Example 297, 4-[(1-Methylindol-3-yl)methylene]-3-trifluoroacetamido-2-pyrazolin-5-one]
26 | 220 to 222 °C | Cc1[nH]c(C=C2C(=O)NN=C2c2cnccn2)c(C)c1CN(C)C [Example 121, 4-[(3,5-Dimethyl-4-dimethylaminomethylpyrrol-2-yl)methylene]-3-pyrazinyl-2-pyrazolin-5-one]
27 | 245 to 247 °C | O=C1NN=C(c2ccc[nH]2)C1=Cc1ccc[nH]1 [Example 67, 3-(Pyrrol-2-yl)-4-[(pyrrol-2-yl)methylene]-2-pyrazolin-5-one]
28 | 255 to 257 °C | CCOC(=O)c1c[nH]c(C=C2C(=O)NN=C2c2cnccn2)c1-c1ccccc1 [Example 164, 4-[(4-Ethoxycarbonyl-3-phenylpyrrol-2-yl)methylene]-3-pyrazinyl-2-pyrazolin-5-one]
29 | 188 to 190 °C | CCc1c(C)[nH]c(C=C2C(=O)NN=C2OC(C)C)c1C [Example 36, 4-[(3,5-Dimethyl-4-ethylpyrrol-2-yl)methylene]-3-isopropoxy-2-pyrazolin-5-one]
30 | 245 to 247 °C | O=C1NN=C(Nc2ccc(Cl)cc2)C1=Cc1ccc[nH]1 [Example 18, 3-(4-Chlorophenylamino)-4-[(pyrrol-2-yl)methylene]-2-pyrazolin-5-one]
31 | 164 to 165 °C | COc1ccc(CC2=NNC(=O)C2=Cc2ccc[nH]2)cc1OC [Example 22, 3-(3,4-Dimethoxybenzyl)-4-[(pyrrol-2-yl)methylene]-2-pyrazolin-5-one]
32 | 203 to 205 °C | Cc1[nH]c(C=C2C(=O)NN=C2c2cnccn2)c(C)c1CCNCc1ccncc1 [Example 204, 4-{{3,5-Dimethyl-4-[2-(4-pyridylmethylamino)ethyl]pyrrol-2-yl}methylene}-3-pyrazinyl-2-pyrazolin-5-one]
33 | 221 to 223 °C | CC(C)OC1=NNC(=O)C1=Cc1cc2ccccc2[nH]1 [Example 306, 4-[(Indol-2-yl)methylene]-3-isopropoxy-2-pyrazolin-5-one]
34 | > 300 °C | O=C1NN=C(c2ccncc2)C1=Cc1c[nH]c2ccccc12 [Example 262, 4-[(Indol-3-yl)methylene]-3-(4-pyridyl)-2-pyrazolin-5-one]
35 | 127 to 129 °C | O=C1NN=C(C2CCCC2)C1=Cc1ccc[nH]1 [Example 62, 3-Cyclopentyl-4-[(pyrrol-2-yl)methylene]-2-pyrazolin-5-one]
36 | 258 to 260 °C | Cc1cccc2c(C=C3C(=O)NN=C3C3CC3)cn(C)c12 [Example 290, 3-Cyclopropyl-4-[(1,7-dimethylindol-3-yl)methylene]-2-pyrazolin-5-one]
37 | 169 to 170 °C | O=C1NN=C(CCCc2ccccc2)C1=Cc1ccc[nH]1 [Example 26, 3-(3-Phenylpropyl)-4-[(pyrrol-2-yl)methylene]-2-pyrazolin-5-one]
38 | 271 to 272 °C | Cn1cc(C=C2C(=O)NN=C2c2ccno2)c2ccccc21 [Example 302, 3-(5-Isoxazolyl)-4-[(1-methylindol-3-yl)methylene]-2-pyrazolin-5-one]
39 | 202 °C (dec.) | CN(C)Cc1c(C=C2C(=O)NN=C2C2CC2)[nH]c2ccccc12 [Example 312, 3-Cyclopropyl-4-[(3-dimethylaminomethylindol-2-yl)methylene]-2-pyrazolin-5-one]
40 | 280 to 281 °C | NC(=O)CCC1=NNC(=O)C1=Cc1c[nH]c2ccccc12 [Example 258, 3-(2-Aminocarbonylethyl)-4-[(indol-3-yl)methylene]-2-pyrazolin-5-one]
41 | 267 to 269 °C | Cc1c(CCC(=O)O)c[nH]c1C=C1C(=O)NN=C1OC(C)C [Example 82, 4-{[4-(2-Carboxyethyl)-3-methylpyrrol-2-yl]methylene}-3-isopropoxy-2-pyrazolin-5-one]
42 | 242 to 244 °C | Cc1cc(C2=NNC(=O)C2=Cc2[nH]c(C)c(CN(C)C)c2C)no1 [Example 177, 4-[(3,5-Dimethyl-4-dimethylaminomethylpyrrol-2-yl)methylene]-3-(5-methyl-3-isoxazolyl)-2-pyrazolin-5-one]
43 | 210 to 218 °C | Cc1[nH]c(C=C2C(=O)NN=C2c2cnccn2)c(C)c1CCNC1CC1 [Example 203, 4-{[4-(2-Cyclopropylaminoethyl)-3,5-dimethylpyrrol-2-yl]methylene}-3-pyrazinyl-2-pyrazolin-5-one]
44 | 193 to 195 °C | Cc1cc(C)c(C=C2C(=O)NN=C2C2CC2)[nH]1 [Example 61, 3-Cyclopropyl-4-[(3,5-dimethylpyrrol-2-yl)methylene]-2-pyrazolin-5-one]
